Measured values reported in US6737383B1, “Herbicidal oxadiazolidines” (priority 1999, dated 2004).

Legend:
soybean = experiment: Test B pre/postemergence soybean; format: in vivo, Glycine max
Summary of the method: (§1)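 Test chemicals in a non-phytotoxic solvent mixture with surfactant were sprayed preemergence onto planted seeds and postemergence onto plants 2 to 18 cm tall (1- to 4-leaf stage). After twelve to sixteen days in a greenhouse, injury was visually rated against untreated controls from 0 (no effect) to 10 (complete control).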

rape = experiment: Test B pre/postemergence rape; format: in vivo, Brassica napus
Summary of the method: as §1

crabgrass = experiment: Test B pre/postemergence crabgrass; format: in vivo, Digitaria sanguinalis
Summary of the method: as §1

sugar beet = experiment: Test B pre/postemergence sugar beet; format: in vivo, Beta vulgaris
Summary of the method: as §1

blackgrass = experiment: Test B pre/postemergence blackgrass; format: in vivo, Alopecurus myosuroides
Summary of the method: as §1

wild oat = experiment: Test B pre/postemergence wild oat; format: in vivo, Avena fatua
Summary of the method: as §1

bedstraw = experiment: Test B pre/postemergence bedstraw; format: in vivo, Galium aparine
Summary of the method: as §1

surinam grass = experiment: Test B pre/postemergence surinam grass; format: in vivo, Brachiaria decumbens
Summary of the method: as §1

pigweed = experiment: Test B pre/postemergence pigweed; format: in vivo, Amaranthus retroflexus
Summary of the method: as §1

corn = experiment: Test B pre/postemergence corn; format: in vivo, Zea mays
Summary of the method: as §1

purple nutsedge = experiment: Test B pre/postemergence purple nutsedge; format: in vivo, Cyperus rotundus
Summary of the method: as §1

smallflower flatsedge = experiment: Test B flood test smallflower flatsedge; format: in vivo, Cyperus difformis; conditions: Pre-emergence
Summary of the method: (§2)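 Each value is a visual injury score relative to controls, with 10 meaning complete control and 0 no effect. Evaluation took place twelve to sixteen days after the 2-leaf-stage plants were treated and kept in the greenhouse.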

velvetleaf = experiment: Test B pre/postemergence velvetleaf; format: in vivo, Abutilon theophrasti
Summary of the method: as §1

wheat = experiment: Test B pre/postemergence wheat; format: in vivo, Triticum aestivum
Summary of the method: as §1

rice = experiment: Test B flood test rice; format: in vivo, Oryza sativa; conditions: Pre-emergence
Summary of the method: as §2

duck salad = experiment: Test B flood test duck salad; format: in vivo, Heteranthera limosa; conditions: Pre-emergence
Summary of the method: as §2

[1] = Preemergence, Rate 62 g/ha, scale of 0 to 10 where 0 is no effect and 10 is complete control
[2] = Preemergence, Rate 250 g/ha, scale of 0 to 10 where 0 is no effect and 10 is complete control
[3] = Preemergence, Rate 500 g/ha, scale of 0 to 10 where 0 is no effect and 10 is complete control
[4] = Rate 62 g/ha, Postemergence, scale 0 to 10, 0 no effect, 10 complete control
[5] = Rate 125 g/ha, Postemergence, scale of 0 to 10 where 0 is no effect and 10 is complete control
[6] = Rate 250 g/ha, Postemergence, scale of 0 to 10 where 0 is no effect and 10 is complete control
[7] = Rate 500 g/ha, Postemergence, scale 0 to 10, 0 no effect, 10 complete control
[8] = Rate 1000 g/ha, scale 0 to 10 (0 no effect, 10 complete control)
[9] = Rate 125 g/ha, flood test species, scale 0 to 10 where 0 is no effect and 10 is complete control
[10] = Rate 250 g/ha, flood-test species, scale 0 to 10, 0 is no effect, 10 is complete control
[11] = Rate 500 g/ha, flood test species, scale 0 to 10 (0 no effect, 10 complete control)

SMILES: Cc1ccccc1-n1c(=O)on(C(=O)N(c2ccc3ccccc3c2)C(C)C)c1=O [Compound 306]
- Soybean plant response rating (soybean; [1]): 0
- Soybean plant response rating (0 to 10 scale) (soybean; Preemergence, Rate 125 g/ha): 0
- Soybean plant response rating (soybean; [2]): 0
- Soybean plant response rating (soybean; [3]): 0
- Soybean plant response rating (soybean; [4]): 1
- Soybean plant response rating (soybean; [5]): 2
- Plant response rating, Soybean (soybean; [6]): 2
- Rape plant response rating (rape; [1]): 0
- Rape plant response rating (0 to 10 scale) (rape; Preemergence, Rate 125 g/ha): 0
- Rape plant response rating (rape; [2]): 0
- Rape plant response rating (rape; [3]): 0
- Rape plant response rating (rape; [4]): 0
- Rape plant response rating (rape; [5]): 0
- Plant response rating, Rape (rape; [6]): 0
- Crabgrass plant response rating (crabgrass; [1]): 0
- Crabgrass plant response rating (0 to 10 scale) (crabgrass; Preemergence, Rate 125 g/ha): 0
- Crabgrass plant response rating (crabgrass; [2]): 0
- Crabgrass plant response rating (crabgrass; [3]): 0
- Crabgrass plant response rating (crabgrass; [4]): 0
- Crabgrass plant response rating (crabgrass; [5]): 0
- Plant response rating, Crabgrass (crabgrass; [6]): 0
- Sugarbeets plant response rating (sugar beet; [1]): 0
- Sugarbeets plant response rating (0 to 10 scale) (sugar beet; Preemergence, Rate 125 g/ha): 0
- Sugarbeets plant response rating (sugar beet; [2]): 0
- Sugarbeets plant response rating (sugar beet; [3]): 0
- Sugarbeets plant response rating (sugar beet; [4]): 0
- Sugarbeets plant response rating (sugar beet; [5]): 0
- Plant response rating, Sugarbeets (sugar beet; [6]): 0
- Blackgrass plant response rating (blackgrass; [1]): 0
- Blackgrass plant response rating (0 to 10 scale) (blackgrass; Preemergence, Rate 125 g/ha): 0
- Blackgrass plant response rating (blackgrass; [2]): 0
- Blackgrass plant response rating (blackgrass; [3]): 0
- Blackgrass plant response rating (blackgrass; [4]): 0
- Blackgrass plant response rating (blackgrass; [5]): 0
- Plant response rating, Blackgrass (blackgrass; [6]): 0
- Blackgrass plant response rating (blackgrass; [7]): 0
- Wild oats plant response rating (wild oat; [1]): 0
- Wild oats plant response rating (0 to 10 scale) (wild oat; Preemergence, Rate 125 g/ha): 0
- Wild oats plant response rating (wild oat; [2]): 0
- Wild oats plant response rating (wild oat; [3]): 0
- Wild oats plant response rating (wild oat; [4]): 0
- Wild oats plant response rating (wild oat; [5]): 0
- Plant response rating, Wild oats (wild oat; [6]): 0
- Bedstraw plant response rating (bedstraw; [1]): 0
- Bedstraw plant response rating (0 to 10 scale) (bedstraw; Preemergence, Rate 125 g/ha): 0
- Bedstraw plant response rating (bedstraw; [2]): 0
- Bedstraw plant response rating (bedstraw; [3]): 0
- Bedstraw plant response rating (bedstraw; [4]): 0
- Bedstraw plant response rating (bedstraw; [5]): 0
- Plant response rating, Bedstraw (bedstraw; [6]): 0
- Bedstraw plant response rating (bedstraw; [7]): 0
- B. signalgrass plant response rating (surinam grass; [1]): 0
- B. signalgrass plant response rating (0 to 10 scale, 0 is no effect, 10 is complete control) (surinam grass; Preemergence, Rate 125 g/ha): 0
- B. signalgrass plant response rating (surinam grass; [2]): 0
- B. signalgrass plant response rating (surinam grass; [3]): 0
- B. signalgrass plant response rating (surinam grass; [4]): 0
- B. signalgrass plant response rating (surinam grass; [5]): 0
- Plant response rating, B. signalgrass (surinam grass; [6]): 0
- B. signalgrass plant response rating (surinam grass; [7]): 0
- Redroot pigweed plant response rating (pigweed; [1]): 0
- Redroot pigweed plant response rating (0 to 10 scale) (pigweed; Preemergence, Rate 125 g/ha): 0
- Redroot pigweed plant response rating (pigweed; [2]): 0
- Redroot pigweed plant response rating (pigweed; [3]): 0
- Redroot pigweed plant response rating (pigweed; [4]): 0
- Redroot pigweed plant response rating (pigweed; [5]): 0
- Plant response rating, Redroot pigweed (pigweed; [6]): 0
- Corn plant response rating (corn; [1]): 0
- Corn plant response rating (0 to 10 scale) (corn; Preemergence, Rate 125 g/ha): 0
- Corn plant response rating (corn; [2]): 0
- Corn plant response rating (corn; [3]): 0
- Corn plant response rating (corn; [4]): 0
- Corn plant response rating (corn; [5]): 0
- Plant response rating, Corn (corn; [6]): 0
- Corn plant response rating (corn; [7]): 0
- Nutsedge plant response rating (purple nutsedge; [1]): 0
- Nutsedge plant response rating (0 to 10 scale) (purple nutsedge; Preemergence, Rate 125 g/ha): 0
- Nutsedge plant response rating (purple nutsedge; [2]): 0
- Nutsedge plant response rating (purple nutsedge; [3]): 0
- Nutsedge plant response rating (purple nutsedge; [4]): 0
- Nutsedge plant response rating (purple nutsedge; [5]): 0
- Plant response rating, Nutsedge (purple nutsedge; [6]): 0
- S. Flatsedge plant response rating (smallflower flatsedge; [8]): 0
- S. Flatsedge plant response rating (smallflower flatsedge; [9]): 0
- S. Flatsedge plant response rating (smallflower flatsedge; [10]): 0
- S. Flatsedge plant response rating (smallflower flatsedge; [11]): 0
- Velvetleaf plant response rating (velvetleaf; [1]): 0
- Velvetleaf plant response rating (0 to 10 scale) (velvetleaf; Preemergence, Rate 125 g/ha): 0
- Velvetleaf plant response rating (velvetleaf; [2]): 0
- Velvetleaf plant response rating (velvetleaf; [3]): 0
- Velvetleaf plant response rating (velvetleaf; [4]): 0
- Velvetleaf plant response rating (velvetleaf; [5]): 0
- Plant response rating, Velvetleaf (velvetleaf; [6]): 0
- Wheat plant response rating (wheat; [1]): 0
- Wheat plant response rating (0 to 10 scale) (wheat; Preemergence, Rate 125 g/ha): 0
- Wheat plant response rating (wheat; [2]): 0
- Wheat plant response rating (wheat; [3]): 0
- Wheat plant response rating (wheat; [4]): 0
- Wheat plant response rating (wheat; [5]): 0
- Plant response rating, Wheat (wheat; [6]): 0
- Rice plant response rating (rice; [8]): 0
- Rice plant response rating (rice; [9]): 0
- Rice plant response rating (rice; [10]): 0
- Rice plant response rating (rice; [11]): 0
- Ducksalad plant response rating (duck salad; [8]): 0
- Ducksalad plant response rating (duck salad; [9]): 0
- Ducksalad plant response rating (duck salad; [10]): 0
- Ducksalad plant response rating (duck salad; [11]): 0
